Several values for one entry are separate records, joined by “and”; a condition that tells them apart may be missing. Equal values may be shown once. Inconclusive results and toxic doses are left out. Cut-off read from the data, not from the text of the source: active = T/C of 150% or more; inactive = T/C below 125%. Square brackets hold non-standard residues; d marks the D form. Peptide text beside a SMILES is read from it. * marks the point of attachment. ξ: configuration not given here. ξF = NC(Cc1ccccc1)C(=O)O; Cbz = O=C(OCc1ccccc1)*; OBn = c1ccc(CO*)cc1
Test system: L1210 leukemia ip in BDF1 mice, survival T/C
Assay: NCI In Vivo Anticancer Drug Screen. Data for tumor model L1210 Leukemia (intraperitoneal) in B6D2F1 (BDF1) mice
Details: endpoint: mean survival time, higher = longer survival
In short: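 Tumor cells were implanted, animals were treated, and survival was followed. The result divides the treated measurement by the vehicle-control measurement.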

[1] = dose: 50.0 mg/kg/injection, schedule: Q04DX002 (ip), vehicle: saline
[2] = dose: 200.0 mg/kg/injection, schedule: Q04DX002 (ip), vehicle: saline
[3] = dose: 100.0 mg/kg/injection, schedule: Q04DX003 (ip), vehicle: saline with Tween-80
[4] = dose: 200.0 mg/kg/injection, schedule: Q04DX003 (ip), vehicle: saline with Tween-80
[5] = dose: 50.0 mg/kg/injection, schedule: Q04DX002 (ip), vehicle: Klucel (hydroxypropylcellulose) (HPC)
[6] = dose: 100.0 mg/kg/injection, schedule: Q04DX002 (ip), vehicle: Klucel (hydroxypropylcellulose) (HPC)
[7] = dose: 100.0 mg/kg/injection, schedule: Q01DX001 (ip), vehicle: saline
[8] = dose: 100.0 mg/kg/injection, schedule: Q01DX009 (ip), vehicle: saline
[9] = dose: 200.0 mg/kg/injection, schedule: Q01DX001 (ip), vehicle: saline
[10] = dose: 200.0 mg/kg/injection, schedule: Q01DX009 (ip), vehicle: saline
[11] = dose: 400.0 mg/kg/injection, schedule: Q01DX001 (ip), vehicle: saline
[12] = dose: 100.0 mg/kg/injection, schedule: Q04DX003 (ip), vehicle: saline
[13] = dose: 200.0 mg/kg/injection, schedule: Q04DX003 (ip), vehicle: saline

Measured: T/C

COc1ccc(Cl)cc1CC=O
inactive: dose: 100.0 mg/kg/injection, schedule: Q01DX001 (ip), vehicle: carboxymethylcellulose (CMC) 118 % of control | dose: 200.0 mg/kg/injection, schedule: Q01DX001 (ip), vehicle: carboxymethylcellulose (CMC) 118 % of control | dose: 400.0 mg/kg/injection, schedule: Q01DX001 (ip), vehicle: carboxymethylcellulose (CMC) 114 % of control

CC1(C(O)CO)OCCO1 (centres undefined)
inactive: dose: 25.0 mg/kg/injection, schedule: Q04DX002 (ip), vehicle: saline 110 % of control | [1] 103 % of control | [2] 107 % of control and 110 % of control | dose: 400.0 mg/kg/injection, schedule: Q04DX002 (ip), vehicle: saline 117 % of control

O=C(O)CCSc1nc[nH]c1[N+](=O)[O-]
inactive: dose: 100.0 mg/kg/injection, schedule: Q01DX001 (ip), vehicle: saline with Tween-80 102 % of control | dose: 200.0 mg/kg/injection, schedule: Q01DX001 (ip), vehicle: saline with Tween-80 96 % of control | dose: 400.0 mg/kg/injection, schedule: Q01DX001 (ip), vehicle: saline with Tween-80 96 % of control

O=C(CNC(=O)OCc1ccccc1)NC(Cc1ccccc1)C(=O)OCc1ccccc1 (stereo not drawn) (Cbz-Gly-[ξF]-OBn)
inactive: [3] 101 % of control | [4] 103 % of control | dose: 400.0 mg/kg/injection, schedule: Q04DX003 (ip), vehicle: saline with Tween-80 95 % of control

CNC(=O)O/N=C(/SC)C(C)C
inactive: dose: 5.0 mg/kg/injection, schedule: Q01DX001 (ip), vehicle: saline 100 % of control | dose: 10.0 mg/kg/injection, schedule: Q01DX001 (ip), vehicle: saline 100 % of control

CCP(C)(C)=S
inactive: dose: 25.0 mg/kg/injection, schedule: Q04DX002 (ip), vehicle: Klucel (hydroxypropylcellulose) (HPC) 101 % of control | [5] 101 % of control | [6] 108 % of control

CS(=O)C(Cl)C(O)c1ccccc1 (centres undefined)
inactive: dose: 100.0 mg/kg/injection, schedule: Q03DX002 (ip), vehicle: saline with Tween-80 117 % of control | dose: 400.0 mg/kg/injection, schedule: Q03DX002 (ip), vehicle: saline with Tween-80 110 % of control

CSC(SC)C(O)C(O)C(O)C(O)CO (centres undefined)
inactive: [1] 103 % of control | dose: 100.0 mg/kg/injection, schedule: Q04DX002 (ip), vehicle: saline 113 % of control | [2] 92 % of control

NC(N)=NC(N)=NCc1ccc(S(N)(=O)=O)cc1
inactive: [7] 102 % of control | [8] 96 % of control | [9] 94 % of control | [10] 100 % of control | [11] 103 % of control | dose: 400.0 mg/kg/injection, schedule: Q01DX009 (ip), vehicle: saline 97 % of control

CCCCCCCCCCCCCCCc1cc(=O)n(C)n1C
inactive: [3] 93 % of control | [4] 94 % of control

CC12CCC(=O)C=C1CCCC2=O (centres undefined)
inactive: [12] 95 % of control | [13] 101 % of control

Clc1ccc(C2c3ccccc3C[n+]3ccccc32)cc1 (centres undefined)
inactive: dose: 6.25 mg/kg/injection, schedule: Q01DX009 (ip), vehicle: Klucel (hydroxypropylcellulose) (HPC) 102 % of control | dose: 12.5 mg/kg/injection, schedule: Q01DX009 (ip), vehicle: Klucel (hydroxypropylcellulose) (HPC) 104 % of control | dose: 25.0 mg/kg/injection, schedule: Q01DX009 (ip), vehicle: Klucel (hydroxypropylcellulose) (HPC) 109 % of control | dose: 35.0 mg/kg/injection, schedule: Q01DX009 (ip), vehicle: Klucel (hydroxypropylcellulose) (HPC) 112 % of control

COc1ccc(Nc2cc(=O)[nH]c(N)n2)cc1
inactive: dose: 100.0 mg/kg/injection, schedule: Q01DX Z (ip), vehicle: methylcellulose (MC) 112 % of control | dose: 200.0 mg/kg/injection, schedule: Q01DX Z (ip), vehicle: methylcellulose (MC) 108 % of control

Ic1cccc2cc3cccc[n+]3cc12
inactive: dose: 9.9 mg/kg/injection, schedule: Q01DX Z (ip), vehicle: carboxymethylcellulose (CMC) 102 % of control | dose: 14.6 mg/kg/injection, schedule: Q01DX Z (ip), vehicle: carboxymethylcellulose (CMC) 103 % of control | dose: 22.0 mg/kg/injection, schedule: Q01DX Z (ip), vehicle: carboxymethylcellulose (CMC) 91 % of control

CC1(c2ccc3ccccc3c2)OCC2(CCCCC2)CO1
inactive: [5] 93 % of control | [6] 100 % of control | dose: 200.0 mg/kg/injection, schedule: Q04DX002 (ip), vehicle: Klucel (hydroxypropylcellulose) (HPC) 100 % of control | dose: 400.0 mg/kg/injection, schedule: Q04DX002 (ip), vehicle: Klucel (hydroxypropylcellulose) (HPC) 96 % of control and 97 % of control

Cc1c2c(cc3c1OCN(C)C3)CN(C)CO2
inactive: dose: 50.0 mg/kg/injection, schedule: Q01DX001 (ip), vehicle: saline 104 % of control | [7] 101 % of control | [9] 107 % of control

S=c1nc(-c2ccccc2)c(-c2ccccc2)n[nH]1
inactive: [12] 100 % of control | [13] 98 % of control | dose: 400.0 mg/kg/injection, schedule: Q04DX003 (ip), vehicle: saline 98 % of control

Cn1/c(=N/N)sc2ccccc21.Cn1/c(=N/N)sc2ccccc21.Cn1/c(=N/N)sc2ccccc21.Cn1/c(=N\N)sc2ccccc21.[Cl][Rh][Cl]
inactive: dose: 3.13 mg/kg/injection, schedule: Q04DX003 (ip), vehicle: distilled water + Tween-80 100 % of control | dose: 6.25 mg/kg/injection, schedule: Q04DX003 (ip), vehicle: distilled water + Tween-80 98 % of control | dose: 12.5 mg/kg/injection, schedule: Q04DX003 (ip), vehicle: distilled water + Tween-80 101 % of control | dose: 25.0 mg/kg/injection, schedule: Q04DX003 (ip), vehicle: distilled water + Tween-80 101 % of control | dose: 50.0 mg/kg/injection, schedule: Q04DX003 (ip), vehicle: distilled water + Tween-80 93 % of control | dose: 100.0 mg/kg/injection, schedule: Q04DX003 (ip), vehicle: distilled water + Tween-80 90 % of control | dose: 200.0 mg/kg/injection, schedule: Q04DX003 (ip), vehicle: distilled water + Tween-80 95 % of control

C=CC[P+](Cc1ccccc1)(c1ccccc1)c1ccccc1
inactive: dose: 3.13 mg/kg/injection, schedule: Q01DX009 (ip), vehicle: saline with Tween-80 98 % of control | dose: 6.25 mg/kg/injection, schedule: Q01DX009 (ip), vehicle: saline with Tween-80 107 % of control | dose: 12.5 mg/kg/injection, schedule: Q01DX009 (ip), vehicle: saline with Tween-80 104 % of control and 115 % of control

CCN(CC)c1ccc(/C=C/C=O)cc1
inactive: dose: 50.0 mg/kg/injection, schedule: Q01DX009 (ip), vehicle: gum acacia 103 % of control | dose: 100.0 mg/kg/injection, schedule: Q01DX009 (ip), vehicle: gum acacia 103 % of control | dose: 100.0 mg/kg/injection, schedule: Q04DX003 (ip), vehicle: gum acacia 93 % of control | dose: 200.0 mg/kg/injection, schedule: Q01DX009 (ip), vehicle: gum acacia 91 % of control | dose: 200.0 mg/kg/injection, schedule: Q04DX003 (ip), vehicle: gum acacia 96 % of control

CCOC(=O)c1c(/N=C/c2cc(Br)ccc2O)sc2c1CCCC2
inactive: dose: 100.0 mg/kg/injection, schedule: Q04DX002 (ip), vehicle: saline with Tween-80 109 % of control | dose: 200.0 mg/kg/injection, schedule: Q04DX002 (ip), vehicle: saline with Tween-80 102 % of control | dose: 400.0 mg/kg/injection, schedule: Q04DX002 (ip), vehicle: saline with Tween-80 98 % of control

COC(=O)Cn1nnc2ccccc21
inactive: dose: 50.0 mg/kg/injection, schedule: Q01DX009 (ip), vehicle: saline 97 % of control | [8] 105 % of control | [10] 87 % of control

CC[As](=O)(O)CC(C)C
inactive: [8] 96 % of control

O=C(Nc1c(Oc2ccc(Cl)cc2)ccc(Cl)c1S(=O)(=O)O)Nc1c(Oc2ccc(Cl)c(Cl)c2)ccc(Cl)c1S(=O)(=O)O
inactive: dose: 50.0 mg/kg/injection, schedule: Q04DX003 (ip), vehicle: saline 97 % of control | [12] 90 % of control | [13] 95 % of control

CCCCN(C)C(=S)S[Te](SC(=S)N(C)CCCC)(SC(=S)N(C)CCCC)SC(=S)N(C)CCCC
inactive: [7] 95 % of control | [9] 90 % of control | [11] 93 % of control | dose: 800.0 mg/kg/injection, schedule: Q01DX001 (ip), vehicle: saline 106 % of control | dose: 1600.0 mg/kg/injection, schedule: Q01DX001 (ip), vehicle: saline 104 % of control

O=C(Nc1ccccc1-c1ccc([N+](=O)[O-])cc1)c1cc(Cl)cc(Cl)c1
inactive: [3] 88 % of control | [4] 88 % of control

Reference: PubChem BioAssay AID248 (DTP/NCI, 2004)
